The text below walks through data of ChEMBL document CHEMBL5726799, “IRAK4 inhibiting agents” (2019).

Bounds are passed on as bounds.

The test concerns the target T1, Interleukin-1 receptor-associated kinase 4 (Homo sapiens, UniProt Q9NWZ3).
T1 sequence (Q9NWZ3 whole entry): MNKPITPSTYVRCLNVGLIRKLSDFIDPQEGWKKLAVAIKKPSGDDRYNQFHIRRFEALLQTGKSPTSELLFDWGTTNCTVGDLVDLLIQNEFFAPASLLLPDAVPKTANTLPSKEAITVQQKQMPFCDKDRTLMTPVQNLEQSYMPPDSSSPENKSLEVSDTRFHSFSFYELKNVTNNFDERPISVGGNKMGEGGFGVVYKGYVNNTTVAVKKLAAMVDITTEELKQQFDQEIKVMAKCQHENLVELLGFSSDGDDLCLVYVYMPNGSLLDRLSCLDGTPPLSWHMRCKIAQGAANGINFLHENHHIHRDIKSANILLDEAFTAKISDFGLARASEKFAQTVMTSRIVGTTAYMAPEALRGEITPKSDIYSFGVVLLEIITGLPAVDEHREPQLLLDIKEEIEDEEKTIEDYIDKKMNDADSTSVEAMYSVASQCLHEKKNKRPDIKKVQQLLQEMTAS
The experiment in a line: Biochemical Assay: The biochemical assay is in a AlphaScreen format. The kinase reaction is based on the IRAK-4 phosphorylation of a biotin labeled peptide. The phosphopeptide is incubated with anti-phosphothreonine antibody as well as streptavidin- and protein A-coated beads. Binding of the protein-A coated beads to the antibody and the streptavidin beads to the peptide, leads to an energy transfer from one bead to the other, ultimately producing a luminescent/fluorescent signal.Generally, the kinase reaction is carried out at 1 nM IRAK4, 1.6 μM peptide, 1 mM ATP in reaction buffer 50 mM Hepes, 60 mM NaCl, 5 mM MgCl2, 0.25 mM MnCl2, 2 mM DTT, 0.01% BSA, 0.01% Tween-20) for 3.5 h at RT. Background: Alpha assays give light when donor and acceptor beads are brought close together.

A word on the IC50: it is the concentration that gives 50% inhibition.

`CCC[C@H](N)c1cccc(-c2cc(N3CCC3)c3cnn(-c4cccc(CO)n4)c3c2)n1` showed an IC50 of under 100 nM.

For the compound `CCC[C@H](N)c1cccc(-c2cc(N3CCOCC3)c3cnn(-c4cccc(CO)n4)c3c2)n1`, the 50% inhibitory concentration (IC50) is under 100 nM.

In the case of `CCc1cccc(-c2cc(-c3nnc(C)o3)c3cnn(-c4cccc(CO)n4)c3c2)n1`, the IC50 is under 100 nM.

`N#CCNC(=O)c1cc(N)cc(-c2ccc3cnn(-c4cccc(C(F)(F)F)n4)c3c2)c1` yielded an IC50 of under 100 nM.
